The term Km denotes the substrate concentration at which the rate is half of its maximum.

These results are taken from publication PMC10279920, “Single-molecule visualization of Pif1 helicase translocation on single-stranded DNA” (The Journal of Biological Chemistry, 2023).

Molecules are shown by their SMILES. Where a chain is given by its changes, count along the chain named.

Assay [1] addresses T1, GFP-Pif1 (Saccharomyces cerevisiae, UniProt P07271).
T1 construct: N-terminal superfolder GFP fusion of nuclear isoform residues 40-859, pRSF-Duet-1, E. coli Rosetta2(DE3), Ni-NTA purified
T1 sequence (P07271 40-859): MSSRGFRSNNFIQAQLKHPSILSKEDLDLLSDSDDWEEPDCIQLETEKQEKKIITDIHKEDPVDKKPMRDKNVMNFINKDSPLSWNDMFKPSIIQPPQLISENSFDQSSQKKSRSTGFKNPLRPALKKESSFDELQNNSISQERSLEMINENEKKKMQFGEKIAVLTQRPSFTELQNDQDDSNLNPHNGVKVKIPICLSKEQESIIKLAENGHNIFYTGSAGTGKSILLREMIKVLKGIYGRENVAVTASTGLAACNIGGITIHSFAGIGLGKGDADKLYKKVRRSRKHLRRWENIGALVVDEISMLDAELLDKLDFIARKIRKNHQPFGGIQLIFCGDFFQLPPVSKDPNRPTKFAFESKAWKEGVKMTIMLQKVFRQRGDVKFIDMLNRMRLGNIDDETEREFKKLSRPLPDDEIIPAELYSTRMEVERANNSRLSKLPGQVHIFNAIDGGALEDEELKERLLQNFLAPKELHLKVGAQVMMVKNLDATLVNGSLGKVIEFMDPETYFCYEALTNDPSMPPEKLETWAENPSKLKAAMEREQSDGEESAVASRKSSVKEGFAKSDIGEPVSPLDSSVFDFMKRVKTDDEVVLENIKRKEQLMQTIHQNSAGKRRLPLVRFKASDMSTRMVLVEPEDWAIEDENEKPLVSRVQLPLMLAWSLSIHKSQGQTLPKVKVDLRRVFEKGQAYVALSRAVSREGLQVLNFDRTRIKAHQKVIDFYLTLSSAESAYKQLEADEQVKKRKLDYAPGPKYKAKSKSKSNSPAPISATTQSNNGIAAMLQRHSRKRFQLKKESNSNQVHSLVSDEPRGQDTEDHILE
Briefly: ATP hydrolysis, [γ-32P]-ATP TLC, Michaelis-Menten fit. It is filed as biochemical. Conditions: M13 ssDNA 1.5 μM nt, 10 nM Pif1, 5 mM MgCl2, 60 mM KCl, pH 7.5, 30 °C, no RPA; labelled compound as tracer. The procedure: ATP hydrolysis, [γ-32P]-ATP TLC, Michaelis-Menten fit on GFP-Pif1 | Values for Vmax, Km, and kcat were determined and compared to WT Pif1

Assay [2] concerns the target T2, GFP-Pif1 (Saccharomyces cerevisiae, UniProt P07271, K387A).
T2 construct: N-terminal superfolder GFP fusion of nuclear isoform residues 40-859, pRSF-Duet-1, E. coli Rosetta2(DE3), Ni-NTA purified
T2 sequence (P07271 40-859 K387A): T1 sequence (P07271 40-859) with K348A
The assay is described as above. The format is biochemical. The following applies: M13 ssDNA 1.5 μM nt, 10 nM Pif1, 5 mM MgCl2, 60 mM KCl, pH 7.5, 30 °C, no RPA; labelled compound as tracer.

`Nc1ncnc2c1ncn2[C@@H]1O[C@H](COP(=O)(O)OP(=O)(O)OP(=O)(O)O)[C@@H](O)[C@H]1O` [ATP]: the figures for the Km at GFP-Pif1 [1] and on GFP-Pif1 [2] were 470 ± 620 µM and 540 ± 290 µM, respectively.
